Results on four molecules are retold here after US12226390B2, “Cannabinoids compositions with polyunsaturated fatty acid monoglycerides, methods and uses thereof” (SCF PHARMA INC., priority 2019, dated 2025).

≈ marks a conversion by molar mass, not a printed value.

A short description of data set [1]: Human absorption study of composition 1 (cannabinoid extract containing CBDA in compound of formula IV and EPA fish oil). It is filed as in vivo. The procedure: Cannabis dried flowers (7 g) was extracted with ethanol (100 ml) for 72 h at room temperature. The flowers was filtered and the ethanol was removed under vacuum without heating to give the cannabinoid crude extract (1.9 g) containing 85% CBDA and 4% THCA. The crude extract (315 mg) was dissolved in a mixture of compound of formula (IV) and EPA concentrated ethyl ester fish oil (3.5 g) to give composition 1.
2.47 g of composition 1 was encapsulated in four (4) hard gel capsules (size 00) for absorption study. A pilot absorption study was conducted in one volunteer. The four (4) hard gel capsules were swallowed with a glass of water by the volunteer fasted for 10 h. 200 ul of blood was collected by a lancet in a heparinised microtube at T=0, 0.5, 1, 1.5, 2, 2.5, 3, 3.5, 4, 4.5, and 6.5 h. The plasma was analyzed by HPLC/MS/MS to quantify the CBDA.

The target in a further data set is T1, COX-2 (Homo sapiens, UniProt P35354).
T1 sequence (P35354 18-604): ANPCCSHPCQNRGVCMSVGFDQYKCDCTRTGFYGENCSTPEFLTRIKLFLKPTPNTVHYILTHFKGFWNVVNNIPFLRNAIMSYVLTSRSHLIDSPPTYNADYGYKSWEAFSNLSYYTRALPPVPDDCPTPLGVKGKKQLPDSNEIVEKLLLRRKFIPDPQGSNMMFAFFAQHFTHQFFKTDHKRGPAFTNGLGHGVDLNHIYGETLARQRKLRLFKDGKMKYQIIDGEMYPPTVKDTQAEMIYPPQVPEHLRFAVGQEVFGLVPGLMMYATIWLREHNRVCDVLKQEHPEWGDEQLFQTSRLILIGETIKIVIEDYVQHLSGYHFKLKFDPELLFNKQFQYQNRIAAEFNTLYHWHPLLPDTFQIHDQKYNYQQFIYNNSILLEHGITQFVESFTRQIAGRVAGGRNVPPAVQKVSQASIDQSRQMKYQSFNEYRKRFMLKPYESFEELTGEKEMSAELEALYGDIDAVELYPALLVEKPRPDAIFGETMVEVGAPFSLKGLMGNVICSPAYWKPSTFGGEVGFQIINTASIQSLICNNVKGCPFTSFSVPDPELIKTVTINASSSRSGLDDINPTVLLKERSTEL
To be noted: native acid form; cited from earlier work.

The conditions of data set [2]: native acid form; cited from earlier work.
Data set [3] is described as follows: Comparative human absorption cross-over study of CBD in compound of formula (IV) versus MCT oil. Format: in vivo. Here is the method:
54 mg of cannabidiol (CBD) was dissolved in 2.5 g of compound of formula (IV) to give a clear solution. 1.16 g of the mixture (25 mg CBD) was encapsulated in two (2) hard gel capsules (size 00) for absorption study. A pilot absorption study was conducted in one volunteer. The two (2) hard gel capsules were swallowed with a glass of water by the volunteer fasted for 10 h. 200 ul of blood was collected by a lancet in a heparinised microtube at T=0, 1, 2, 3, 4, 5, 6, 7 and 8 h. The plasma was analyzed by HPLC/MS/MS to quantify the CBD. A comparative study was conducted with the same amount of CBD but with MCT oil (medium-chain triglycerides oil) instead of compound of formula (IV).

Data set [4] in a line: CBD solubility in carrier oils. Format: physicochemical. To be noted: for solubility: oil or lipid.
For data set [5] the following is noted: 400 mg CBD in corn oil, orally administered; cited from earlier work.
The conditions of data set [6]: stated by Health Canada; cited from earlier work.

For the molecule `C=C(C)[C@@H]1CCC(C)=C[C@H]1c1c(O)cc(CCCCC)c(C(=O)O)c1O` [CBDA, Cannabidiolic Acid], in data set [1] (170 mg CBDA in compound of formula IV versus 400 mg CBD in corn oil (half of the dose)), the “increase of the Cmax” value is on record as 500%. Further, in data set [1] (human, plasma, cannabinoid extract containing 170 mg of CBDA in compound of formula IV, oral, one fasted volunteer), the Cmax was 1000 ng/mL. For the same molecule, on COX-2, the COX-2 inhibition result is recorded as “COX-2 inhibitor”.
With `CCCCCc1cc2c(c(O)c1C(=O)O)[C@@H]1C=C(C)CC[C@H]1C(C)(C)O2` [THCA, Tetrahydrocannabinolic acid], the psychotropic effect result in data set [2] is on record as “no psychotropic effect”.
As for `C=C(C)[C@@H]1CCC(C)=C[C@H]1c1c(O)cc(CCCCC)cc1O` [CBD, Cannabidiol], in data set [3] (25 mg CBD oral in hard gel capsules, one volunteer fasted 10 h, plasma 0-8 h, FIG. 1), the “absorption and bioavailability of CBD, compound of formula (IV) over MCT oil” value is given as “superiority”. In addition, the bioavailability in data set [3] (human, plasma, formulated in compound of formula IV, low dose of 25 mg, oral, read-out: CBD more bioavailable than in MCT oil) was 200%. This molecule also showed an increase of solubility in data set [4] (formulation containing compound of formula IV and EPA fish oil versus corn oil) of 33%. Besides, the solubility is 400 mg/mL (≈ 1270 mM) in data set [4] (in a formulation containing compound of formula IV and EPA fish oil); approximately 300 mg/mL (≈ 954 mM) in data set [4] (in corn oil). Moreover, the Cmax in plasma in data set [5] was 181 ng/mL.
Regarding `CCCCCc1cc(O)c2c(c1)OC(C)(C)[C@@H]1CCC(C)=C[C@@H]21` [THC, Tetrahydrocannabinol], in data set [6], the oral bioavailability is on record as 10%.

Usually Cmax stands for the peak of the concentration-time curve. In general, solubility refers to the concentration that dissolves in the medium under given conditions. A high value points to much dissolved substance.
